# According to ChEMBL document CHEMBL1201862, “PubChem BioAssay data set” (2004):
# The source made the active and inactive calls. Rule as the data show it, for most assays here: actives have a measured EC50 and inactives only a lower limit.
# Key:
# [1] = target: T1, Caspase-6 (Homo sapiens, UniProt P55212); assay: inhibition of CASP6 peptide cleavage – biochemical, VEID-R110 fluorescence, cherry-pick, dose response (AID 720632)
# T1 sequence (P55212 whole entry): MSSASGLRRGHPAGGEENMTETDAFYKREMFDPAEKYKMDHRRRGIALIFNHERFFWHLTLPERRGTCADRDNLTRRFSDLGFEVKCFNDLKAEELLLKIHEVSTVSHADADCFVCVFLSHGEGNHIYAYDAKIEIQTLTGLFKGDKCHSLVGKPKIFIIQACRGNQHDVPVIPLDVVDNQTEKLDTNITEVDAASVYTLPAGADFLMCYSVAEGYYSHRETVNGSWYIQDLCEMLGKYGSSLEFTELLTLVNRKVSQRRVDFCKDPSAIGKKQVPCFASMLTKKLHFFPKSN
# [2] = Luminescence Cell-Based Dose Confirmation HTS to Identify Activators of 5'UTR Stem-Loop Driven Alpha-Synuclein mRNA Translation in H4 Neuroglioblastoma Cells. [Related pubchem assays: 1829 (Project Summary), 1814 (Primary HTS)]; format: functional
# [3] = Luminescence Cell-Based Dose Response HTS to Identify Activators of Luciferase Translation or Activity in H4 […] Cells. [Related pubchem assays: 1829 (Project Summary), 1814 (Primary HTS)]; format: functional
# [4] = tested on: H4; assay: Luminescence Cell-Based Dose Response HTS to Identify Activators of 5'UTR Stem-Loop Driven Prion Protein mRNA Translation in H4 Neuroglioblastoma Cells. [Related pubchem assays: 1829 (Project Summary), 1814 (Primary HTS)]; format: functional; conditions: Homo sapiens
# [5] = target: T2, High affinity choline transporter 1 (Homo sapiens, UniProt Q9GZV3); assay: human choline transporter blockers, potency – cell-based, 5-point CRC, membrane potential dye, dose response (AID 504840); format: functional
# T2 sequence (Q9GZV3 whole entry): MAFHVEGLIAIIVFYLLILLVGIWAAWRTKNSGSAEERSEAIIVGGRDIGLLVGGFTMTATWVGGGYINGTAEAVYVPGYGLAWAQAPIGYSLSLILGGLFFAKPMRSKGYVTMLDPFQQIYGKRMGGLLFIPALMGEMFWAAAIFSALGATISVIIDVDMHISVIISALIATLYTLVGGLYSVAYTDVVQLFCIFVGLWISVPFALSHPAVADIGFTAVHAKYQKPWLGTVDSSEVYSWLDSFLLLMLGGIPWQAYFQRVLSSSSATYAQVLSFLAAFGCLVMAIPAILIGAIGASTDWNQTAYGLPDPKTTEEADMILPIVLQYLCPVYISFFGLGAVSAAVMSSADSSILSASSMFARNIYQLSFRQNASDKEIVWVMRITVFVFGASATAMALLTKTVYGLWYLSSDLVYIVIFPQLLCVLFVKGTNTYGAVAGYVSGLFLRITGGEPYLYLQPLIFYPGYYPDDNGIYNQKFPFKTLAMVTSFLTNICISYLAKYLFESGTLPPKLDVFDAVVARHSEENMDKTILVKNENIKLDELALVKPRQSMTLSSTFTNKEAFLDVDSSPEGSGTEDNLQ
# [6] = reduction of Shn3 3'UTR-driven luciferase in osteoblasts – cell-based, Clone20 osteoblasts, firefly luciferase, cherry-picked, dose response (AID 624132); format: functional;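 also: firefly luciferase luminescence from reporter carrying the Shn3 3'UTR in osteoblasts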
# [7] = loss of viability in HepG2 cells – cell-based, CellTiter-Glo, cherry-picked, cytotoxicity control for Shn3 inhibitor project, dose response (AID 624134); format: functional
# [8] = non-specific 3'UTR reporter inhibition in Clone20-Shn3RL – cell-based, Renilla luciferase, cherry-picked, counter-screen for Shn3 inhibitor project, dose response (AID 624133); format: functional
# [9] = NIH-3T3 fibroblast cytotoxicity, dose response, cytotoxicity control, cell-based, fluorescence, Alamar Blue, secondary assay (AID 2327); format: functional;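 also: NIH-3T3 mouse fibroblasts cultured with fluconazole at 8 µg/mL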
# [10] = fluconazole-exposed Candida albicans growth modulators – fluorescence, retest, confirmation (AID 2467); format: functional, cell-based
# [11] = target: Voltage-dependent T-type calcium channel subunit alpha-1H (Homo sapiens, UniProt O95180); format: functional;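 also: channel activity triggered by adding a high calcium stimulation buffer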
# [12] = toxicity toward HepG2 liver cells – cell-based, plate reader, cherry-pick, antagonist series, cytotoxicity control, dose response (AID 743416); format: functional
# [13] = viability of uninfected HEp-2 cells – cell-based, HTS, cytotoxicity control for RSV inhibitor project, dose response (AID 2410); format: functional; conditions: human respiratory syncytial virus
# [14] = Trypanosoma cruzi growth suppression in host cells – NIH3T3 host cells, beta-gal luminescence, confirmation (AID 2044); format: functional, cell-based;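 also: intracellular parasites grown in NIH/3T3 mouse fibroblasts as host cells; luminescent beta-galactosidase reporter signal from transgenic T. cruzi replicating inside host cells; inhibitors lower the luminescence signal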
# [15] = NIH3T3 cell viability loss – ATP luminescence, mouse fibroblasts, counter-screen, dose response (AID 2010); format: functional, cell-based;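 also: cells exposed to compound for about 90 hours before reading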
# [16] = target: Fatty acid synthase (Homo sapiens, UniProt P49327); assay: inhibition of human FAS-TE enzyme activity – biochemical, kinetic fluorescence intensity, dose response (AID 624326); format: functional;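 also: rate of fluorescence rise from hydrolysis of a fluorogenic O-methyl fluorescein ester substrate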
# [17] = target: Heat shock protein HSP 90-alpha (Homo sapiens, UniProt P07900); format: functional, organism-based
# [18] = tested on: BJ; assay: BJ-TERT fibroblast viability loss – cell-based, RAS-independent, luminescence, dose response (AID 1933); format: functional; conditions: Homo sapiens
# [19] = tested on: BJ; assay: cells; format: functional, cell-based; conditions: Homo sapiens
# [20] = tested on: BJ; assay: BJ-TERT-LT-ST fibroblast viability loss – cell-based, RAS-independent, luminescence, dose response (AID 1935); format: functional; conditions: Homo sapiens;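 also: BJ fibroblasts immortalized with TERT plus LT and ST oncogenes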
# [21] = DRD fibroblast viability loss – cell-based, non-viral oncogenic, luminescence, dose response (AID 1934); format: functional; conditions: Homo sapiens
# [22] = target: T3, Microphthalmia-associated transcription factor (Homo sapiens, UniProt O75030); assay: reducers of TRPM1 reporter luminescence, concentration series – cell-based, SK-MEL-5, cherry-picked, set 3, MITF inhibitor project, dose response (AID 493073); format: functional;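 also: SK-MEL-5 melanoma cells with luciferase driven by the MITF target TRPM1 promoter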
# T3 sequence (O75030 whole entry): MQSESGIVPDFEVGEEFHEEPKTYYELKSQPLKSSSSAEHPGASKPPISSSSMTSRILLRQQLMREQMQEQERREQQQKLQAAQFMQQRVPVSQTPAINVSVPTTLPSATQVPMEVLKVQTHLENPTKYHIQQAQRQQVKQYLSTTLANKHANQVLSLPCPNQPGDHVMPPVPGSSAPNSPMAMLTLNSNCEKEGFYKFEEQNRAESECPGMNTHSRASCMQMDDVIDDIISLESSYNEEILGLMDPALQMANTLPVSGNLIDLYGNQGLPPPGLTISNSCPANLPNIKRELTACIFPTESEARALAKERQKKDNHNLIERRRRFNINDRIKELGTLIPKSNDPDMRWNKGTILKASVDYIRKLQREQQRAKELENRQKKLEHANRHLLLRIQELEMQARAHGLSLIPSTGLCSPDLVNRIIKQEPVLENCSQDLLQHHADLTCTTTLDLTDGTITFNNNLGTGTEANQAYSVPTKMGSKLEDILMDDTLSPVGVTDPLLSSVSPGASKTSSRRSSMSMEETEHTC
# [23] = tested on: Streptococcus sp. 'group A'; assay: Streptococcus pyogenes SK(-)GAS viability under kanamycin – luminescence, BacTiterGlo, confirmation, counter-screen for streptokinase expression inhibitor project, dose response (AID 1900); format: functional, organism-based
# [24] = target: T4, Streptokinase A (Streptococcus pyogenes serotype M1, UniProt P10520); assay: viability-normalized secreted streptokinase activity reduction – plasminogen activation absorbance, OD405, dose response (AID 1914); format: functional, Streptococcus pyogenes M1 GAS;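 also: secreted streptokinase activity via plasminogen activation per viability signal from cell pellet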
# T4 sequence (P10520 whole entry): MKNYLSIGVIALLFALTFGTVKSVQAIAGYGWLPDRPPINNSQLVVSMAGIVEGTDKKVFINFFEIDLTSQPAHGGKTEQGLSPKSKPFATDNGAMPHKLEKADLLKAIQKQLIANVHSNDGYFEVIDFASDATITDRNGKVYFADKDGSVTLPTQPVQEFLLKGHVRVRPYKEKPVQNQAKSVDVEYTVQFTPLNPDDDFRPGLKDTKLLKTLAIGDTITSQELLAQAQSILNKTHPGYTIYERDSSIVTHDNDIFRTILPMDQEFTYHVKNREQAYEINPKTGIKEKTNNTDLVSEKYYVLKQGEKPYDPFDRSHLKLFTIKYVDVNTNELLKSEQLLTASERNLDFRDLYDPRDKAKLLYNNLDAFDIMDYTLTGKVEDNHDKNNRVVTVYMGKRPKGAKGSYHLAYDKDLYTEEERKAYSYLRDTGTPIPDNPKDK
# [25] = tested on: Streptococcus; assay: GAS UMAA2166 growth inhibition – luminescence, BacTiterGlo, counter-screen for streptokinase expression inhibitor project, dose response (AID 1915); format: functional, organism-based;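 also: potency for reduction of bacterial viability or growth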
# Chain of Voltage-dependent T-type calcium channel subunit alpha-1H (O95180 whole entry): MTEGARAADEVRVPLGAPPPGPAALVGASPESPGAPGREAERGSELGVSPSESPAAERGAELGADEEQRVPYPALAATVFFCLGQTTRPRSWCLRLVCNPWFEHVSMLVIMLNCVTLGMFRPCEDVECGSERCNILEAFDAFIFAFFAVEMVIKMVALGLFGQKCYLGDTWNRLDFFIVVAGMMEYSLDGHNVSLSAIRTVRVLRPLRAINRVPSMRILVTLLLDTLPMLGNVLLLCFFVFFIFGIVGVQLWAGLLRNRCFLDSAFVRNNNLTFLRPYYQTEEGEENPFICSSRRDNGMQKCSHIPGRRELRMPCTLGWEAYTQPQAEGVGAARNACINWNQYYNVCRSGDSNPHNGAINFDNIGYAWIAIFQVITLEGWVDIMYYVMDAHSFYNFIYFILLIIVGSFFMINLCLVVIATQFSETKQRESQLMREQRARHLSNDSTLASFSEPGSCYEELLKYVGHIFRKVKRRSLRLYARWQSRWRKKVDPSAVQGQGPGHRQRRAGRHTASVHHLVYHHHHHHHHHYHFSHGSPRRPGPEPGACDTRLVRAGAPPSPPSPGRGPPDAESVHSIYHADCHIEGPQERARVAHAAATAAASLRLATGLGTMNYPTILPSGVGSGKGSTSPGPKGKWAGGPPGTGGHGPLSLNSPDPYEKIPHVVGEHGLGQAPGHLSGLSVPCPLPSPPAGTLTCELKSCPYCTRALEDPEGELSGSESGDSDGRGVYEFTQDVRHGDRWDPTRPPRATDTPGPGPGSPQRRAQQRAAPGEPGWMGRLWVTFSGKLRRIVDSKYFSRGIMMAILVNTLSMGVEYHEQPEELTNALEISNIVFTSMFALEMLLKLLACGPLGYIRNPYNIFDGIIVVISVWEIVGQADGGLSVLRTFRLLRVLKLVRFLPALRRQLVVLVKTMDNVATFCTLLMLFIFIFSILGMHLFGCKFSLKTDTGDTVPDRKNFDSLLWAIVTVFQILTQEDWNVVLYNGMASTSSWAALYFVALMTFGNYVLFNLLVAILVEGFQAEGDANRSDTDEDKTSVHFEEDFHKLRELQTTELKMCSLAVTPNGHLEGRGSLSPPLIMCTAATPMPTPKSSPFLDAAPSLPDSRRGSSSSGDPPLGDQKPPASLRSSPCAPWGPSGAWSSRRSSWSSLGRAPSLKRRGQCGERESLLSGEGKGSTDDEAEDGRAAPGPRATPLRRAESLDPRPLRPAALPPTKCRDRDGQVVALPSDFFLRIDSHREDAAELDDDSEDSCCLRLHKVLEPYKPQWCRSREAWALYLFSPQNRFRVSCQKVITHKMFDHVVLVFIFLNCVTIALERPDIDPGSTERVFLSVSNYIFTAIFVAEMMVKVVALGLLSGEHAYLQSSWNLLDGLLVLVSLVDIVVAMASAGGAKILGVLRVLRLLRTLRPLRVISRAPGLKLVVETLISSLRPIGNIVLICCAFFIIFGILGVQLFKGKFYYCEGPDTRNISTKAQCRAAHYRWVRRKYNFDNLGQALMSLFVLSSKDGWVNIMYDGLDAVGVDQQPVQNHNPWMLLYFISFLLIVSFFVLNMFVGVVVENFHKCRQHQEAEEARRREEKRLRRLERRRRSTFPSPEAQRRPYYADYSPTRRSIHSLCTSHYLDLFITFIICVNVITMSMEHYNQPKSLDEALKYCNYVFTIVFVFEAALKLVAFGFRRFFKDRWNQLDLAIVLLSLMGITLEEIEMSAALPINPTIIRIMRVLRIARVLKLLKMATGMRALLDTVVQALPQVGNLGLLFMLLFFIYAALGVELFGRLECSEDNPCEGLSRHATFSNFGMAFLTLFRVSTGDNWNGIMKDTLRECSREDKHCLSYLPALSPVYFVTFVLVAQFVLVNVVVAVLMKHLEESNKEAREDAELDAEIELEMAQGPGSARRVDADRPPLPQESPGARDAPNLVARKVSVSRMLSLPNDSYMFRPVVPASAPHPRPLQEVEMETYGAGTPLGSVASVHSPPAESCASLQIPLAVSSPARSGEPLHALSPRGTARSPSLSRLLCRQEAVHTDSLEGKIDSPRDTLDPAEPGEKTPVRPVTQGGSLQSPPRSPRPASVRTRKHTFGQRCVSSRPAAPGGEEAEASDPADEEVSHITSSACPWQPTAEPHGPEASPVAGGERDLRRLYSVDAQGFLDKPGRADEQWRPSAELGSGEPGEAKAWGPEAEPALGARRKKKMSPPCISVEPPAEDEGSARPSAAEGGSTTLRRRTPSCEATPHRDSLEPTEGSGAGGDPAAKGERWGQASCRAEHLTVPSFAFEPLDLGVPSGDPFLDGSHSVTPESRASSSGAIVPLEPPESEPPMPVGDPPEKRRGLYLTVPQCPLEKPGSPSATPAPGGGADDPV
# Chain of Fatty acid synthase (P49327 whole entry): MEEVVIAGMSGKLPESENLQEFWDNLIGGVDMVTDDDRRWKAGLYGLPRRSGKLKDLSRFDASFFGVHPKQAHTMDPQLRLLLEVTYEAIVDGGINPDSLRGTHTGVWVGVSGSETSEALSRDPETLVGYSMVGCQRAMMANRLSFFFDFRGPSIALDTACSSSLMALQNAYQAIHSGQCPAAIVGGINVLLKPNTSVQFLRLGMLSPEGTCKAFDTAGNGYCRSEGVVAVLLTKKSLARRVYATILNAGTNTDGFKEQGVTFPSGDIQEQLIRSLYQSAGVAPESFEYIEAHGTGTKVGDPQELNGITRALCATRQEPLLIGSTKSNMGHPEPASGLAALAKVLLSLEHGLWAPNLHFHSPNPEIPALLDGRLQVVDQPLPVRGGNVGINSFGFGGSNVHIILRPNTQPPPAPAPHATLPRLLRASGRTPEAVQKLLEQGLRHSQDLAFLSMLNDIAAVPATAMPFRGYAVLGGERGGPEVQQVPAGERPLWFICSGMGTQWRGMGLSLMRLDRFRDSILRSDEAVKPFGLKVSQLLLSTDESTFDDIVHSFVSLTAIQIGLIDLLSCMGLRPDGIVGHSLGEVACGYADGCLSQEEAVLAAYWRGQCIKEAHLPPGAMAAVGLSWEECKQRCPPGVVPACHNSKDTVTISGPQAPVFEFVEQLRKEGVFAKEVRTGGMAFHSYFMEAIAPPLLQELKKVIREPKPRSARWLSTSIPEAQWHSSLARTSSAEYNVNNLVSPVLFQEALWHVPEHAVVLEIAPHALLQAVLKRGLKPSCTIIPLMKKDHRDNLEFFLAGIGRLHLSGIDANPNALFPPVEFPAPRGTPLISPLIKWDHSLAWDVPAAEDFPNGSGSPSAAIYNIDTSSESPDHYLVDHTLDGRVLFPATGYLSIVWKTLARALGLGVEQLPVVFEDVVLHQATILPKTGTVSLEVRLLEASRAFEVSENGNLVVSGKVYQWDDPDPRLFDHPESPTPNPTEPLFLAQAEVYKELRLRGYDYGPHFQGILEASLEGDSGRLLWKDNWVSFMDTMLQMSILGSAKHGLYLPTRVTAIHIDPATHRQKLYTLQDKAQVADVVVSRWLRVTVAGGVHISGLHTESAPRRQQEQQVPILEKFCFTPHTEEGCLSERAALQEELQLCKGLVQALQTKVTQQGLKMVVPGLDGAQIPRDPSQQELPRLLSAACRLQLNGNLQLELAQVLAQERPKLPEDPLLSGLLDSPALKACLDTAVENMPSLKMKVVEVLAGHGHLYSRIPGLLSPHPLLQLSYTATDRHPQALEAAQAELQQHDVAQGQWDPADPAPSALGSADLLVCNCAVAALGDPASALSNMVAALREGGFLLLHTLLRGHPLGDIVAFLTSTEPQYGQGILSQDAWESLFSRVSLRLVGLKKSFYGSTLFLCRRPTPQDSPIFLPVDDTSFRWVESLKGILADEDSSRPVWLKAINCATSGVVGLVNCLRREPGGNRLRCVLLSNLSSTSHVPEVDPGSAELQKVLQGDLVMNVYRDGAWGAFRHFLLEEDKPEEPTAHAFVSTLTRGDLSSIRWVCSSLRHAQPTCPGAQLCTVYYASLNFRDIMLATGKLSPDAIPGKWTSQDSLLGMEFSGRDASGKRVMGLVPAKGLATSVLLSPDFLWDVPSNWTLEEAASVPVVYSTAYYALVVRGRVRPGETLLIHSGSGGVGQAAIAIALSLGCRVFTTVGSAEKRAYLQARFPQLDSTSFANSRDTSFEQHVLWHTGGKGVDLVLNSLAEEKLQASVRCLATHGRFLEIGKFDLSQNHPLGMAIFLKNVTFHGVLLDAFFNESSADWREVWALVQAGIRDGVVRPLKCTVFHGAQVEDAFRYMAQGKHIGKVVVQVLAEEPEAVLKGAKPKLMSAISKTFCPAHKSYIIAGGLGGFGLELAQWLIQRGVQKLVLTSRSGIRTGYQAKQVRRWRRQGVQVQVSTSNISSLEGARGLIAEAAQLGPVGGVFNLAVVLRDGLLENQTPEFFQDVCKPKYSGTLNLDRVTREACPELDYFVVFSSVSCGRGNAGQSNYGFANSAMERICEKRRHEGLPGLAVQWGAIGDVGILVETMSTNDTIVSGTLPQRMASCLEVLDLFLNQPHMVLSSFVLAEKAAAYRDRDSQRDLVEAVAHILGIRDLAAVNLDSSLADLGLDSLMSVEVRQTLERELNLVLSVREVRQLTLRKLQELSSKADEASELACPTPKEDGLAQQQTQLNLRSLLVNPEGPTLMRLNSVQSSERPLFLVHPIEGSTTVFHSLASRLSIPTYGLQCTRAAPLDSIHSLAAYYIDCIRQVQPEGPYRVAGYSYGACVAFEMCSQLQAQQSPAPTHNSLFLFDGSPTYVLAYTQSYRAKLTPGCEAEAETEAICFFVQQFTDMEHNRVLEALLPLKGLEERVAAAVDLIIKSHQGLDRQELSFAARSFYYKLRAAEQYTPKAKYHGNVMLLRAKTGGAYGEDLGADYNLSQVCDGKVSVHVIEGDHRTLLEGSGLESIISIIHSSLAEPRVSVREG
smiles,measurement,setting,value
CCCCC/C=C\C/C=C\C/C=C\CCCCC(=O)O [GAMOLENIC ACID],AC50,[1],0.505 µM (active)
CN1CCC(=NNC(=O)C(=O)Nc2ccc(F)cc2)CC1,EC50,[2],14.5 µM (active)
same,EC50,[3],23.6 µM (active)
same,EC50,[4],15 µM (active)
CCN(Cc1ccncc1)C(=O)c1cc(COc2ccc(F)cc2Cl)on1,IC50,[5],13.2 µM (active)
O=C(Nc1cc([N+](=O)[O-])ccc1O)c1ccc2c(c1)C(=O)N(Cc1ccco1)C2=O,AC50,[1],18.5 µM (active)
CC1CCC(NC(=O)N(CCCl)N=O)CC1 (stereo unspecified) [SEMUSTINE],EC50,[2],5.98 µM (active)
same,EC50,[3],24 µM (active)
same,EC50,[4],16.2 µM (active)
O=C(COC(=O)c1ccc([N+](=O)[O-])o1)Nc1ncc(Cl)cc1Cl,AC50,[1],28.3 µM (active)
O=C(NCc1ccco1)c1cc2c(s1)CCCCC2,EC50,[2],34 µM (active)
same,EC50,[3],41.9 µM (active)
same,EC50,[4],> 120 µM (not active)
COc1ccc(Cl)cc1N=C(N)Nc1nc(O)cc(CSc2ccc(C)cc2)n1,AC50,[6],1.82 µM (active)
same,AC50,[7],> 70 µM (inactive)
same,AC50,[8],21.5 µM (active)
O=C(O)CSc1nc2sc3c(c2c(=O)n1Cc1ccccc1)CCCCC3,EC50,[2],> 60 µM (not active)
same,EC50,[3],15.6 µM (active)
same,EC50,[4],16.4 µM (active)
O=C(OCC(=O)N1CCCC1=O)c1nc(Cl)c(Cl)c(Cl)c1Cl,EC50,[2],14.4 µM (active)
same,EC50,[3],> 120 µM (not active)
same,EC50,[4],> 120 µM (not active)
Cc1ccc(-c2nnc(SCC(C)C)n2C)cc1,EC50,[2],11.5 µM (active)
same,EC50,[3],88.6 µM (active)
same,EC50,[4],10.1 µM (active)
Cc1cc2c(cc(C(=O)N3CCC(C(=O)NC4CCCC4)CC3)n2Cc2c(F)cccc2Cl)o1,AC50,[6],4.81 µM (active)
same,AC50,[7],49.4 µM (active)
same,AC50,[8],10 µM (active)
O=C(Nc1ccc(S(=O)(=O)NC2=NCCCCC2)cc1)c1ccc(C(F)(F)F)cc1,IC50,[5],11.8 µM (active)
COc1ccc(-n2c(C)cc(/C=C/c3nc(O)c([N+](=O)[O-])c(O)n3)c2C)cc1,AC50,[1],18.8 µM (active)
Cc1cc(Sc2nc(N)ncc2[N+](=O)[O-])ncn1,EC50,[9],4.19 µM (inconclusive)
same,EC50,[10],0.746 µM (active)
Cc1nc2c(-c3ccc(F)cc3)c(C)nn2c(C)c1CCC(=O)N1CCN(c2ccc(F)cc2)CC1,EC50,[11],5.21 µM (active)
O=C(Nc1cccc(NC(=O)c2ccc(-c3ccc(Br)cc3)o2)c1)c1ccccc1,EC50,[11],19.1 µM (active)
Cc1cc(-c2ccccc2)n(-c2ccc(C(=O)N3CCN(c4ncccn4)CC3)cc2)n1,IC50,[5],8.32 µM (active)
CC(C)OC(=O)c1cccc(-c2ccc(C=O)o2)c1,IC50,[5],14.5 µM (active)
Cc1ccc(S(=O)(=O)N2CCCc3nc(-c4ccc(F)cc4)ccc32)cc1,AC50,[12],> 52 µM (inactive)
CC(NC(=O)CCC(=O)NC(C)C1COc2ccccc2O1)C1COc2ccccc2O1 (stereo unspecified),EC50,[11],4.07 µM (active)
COc1ccc(-c2noc(CCC(=O)N3CCN(c4cc(C)ccc4C)CC3)n2)cc1,EC50,[11],3.63 µM (active)
O=S(=O)(c1ccc(-c2csc(-c3cccnc3)n2)cc1)N1CCCCC1,CC50,[13],40.1 µM (active)
same,EC50,[14],1.89 µM (active)
same,EC50,[15],> 30 µM (not active)
same,IC50,[16],3.65 µM (active)
O=C(C=Cc1cccc(O)c1)c1ccccc1O,AC50,[17],2.81 µM (active)
O=C(Nc1cccc(C(=O)N2CCCCC2)c1)c1ccccc1Br,IC50,[5],16.8 µM (active)
CC(CCc1ccccc1)NC(=O)c1ccc(Br)cc1 (stereo unspecified),AC50,[17],2.6 µM (active)
CC(=O)c1ccc(Oc2ccc(C(=O)c3ccc(C)c(C)c3)cc2[N+](=O)[O-])cc1,EC50,[18],26.4 µM (active)
same,EC50,[19],> 150 µM (not active)
same,EC50,[20],> 150 µM (not active)
same,EC50,[21],> 150 µM (inconclusive)
Cc1ccc(C(CC(=O)NCc2ccco2)c2ccc(OC(C)C)cc2)cc1 (stereo unspecified),EC50,[11],15.9 µM (active)
Cc1ccc(C(=O)Cn2c(-c3ccccc3)noc2=O)cc1,EC50,[2],13.1 µM (active)
same,EC50,[3],12.4 µM (active)
same,EC50,[4],15 µM (active)
O=C(c1ccc([N+](=O)[O-])s1)N1CCN(c2ccccn2)CC1,AC50,[22],12.2 µM (active)
[O-][n+]1c2ccccc2[n+]([O-])c2cc(O)ccc21,EC50,[23],7.97 µM (active)
same,EC50,[24],> 150 µM (not active)
same,EC50,[25],17.3 µM (active)
same,AC50,[1],6.89 µM (active)
CCSc1nc2ccccc2n1CCOc1ccccc1,EC50,[11],18.2 µM (active)
CCC(NCCc1ccccc1)=C1C(=O)N(C)C(=O)N(C)C1=O,IC50,[5],13.8 µM (active)
